Target: FABP5 (Homo sapiens, UniProt Q01469)
Assay: fluorescence titration
Type: binding

FABP5, sequence (Q01469 2-135): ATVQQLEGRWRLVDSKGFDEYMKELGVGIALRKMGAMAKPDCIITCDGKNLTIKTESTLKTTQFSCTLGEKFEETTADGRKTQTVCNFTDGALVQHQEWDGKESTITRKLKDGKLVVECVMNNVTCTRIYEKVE

- Kd: 70 ± 6.4 nM
SMILES: O=S(=O)(O)c1cccc2cccc(Nc3ccccc3)c12 [ANS, 1-anilinonaphthalene-8-sulfonic acid]

From article PMC4662070 (Nature communications, 2015)
